Data as given in ChEMBL document CHEMBL1134148, “Combinatorial synthesis of CCR5 antagonists” (Bioorg Med Chem Lett, 2001).
Activity calls are given as the source filed them. No cut-off for these calls is given here.

Assays:
[1] = molecular target: T1, C-C chemokine receptor type 5 (Homo sapiens, UniProt P51681); assay: Ability to inhibit binding of [125I]-MIP-1 alpha to C-C chemokine receptor type 5 in Chinese hamster ovary (CHO) cell membranes.
[2] = molecular target: T1, C-C chemokine receptor type 5; assay: Ability to inhibit binding of [125I]-MIP-1 alpha to C-C chemokine receptor type 5 in Chinese hamster ovary (CHO) cell membranes;NA means no significant activity.
[3] = molecular target: T1, C-C chemokine receptor type 5; assay: Ability to inhibit binding of [125I]-MIP-1 alpha to C-C chemokine receptor type 5 in Chinese hamster ovary (CHO) cell membranes
[4] = tested on: Human immunodeficiency virus 1; assay: Inhibitory concentration for viral growth over 7 days vs YU-2 strain of HIV-1 at 10 uM; assay type: functional; settings: Human immunodeficiency virus 1, 168 h
[5] = tested on: Human immunodeficiency virus 1; assay: Inhibitory concentration for viral growth over 7 days vs YU-2 strain of HIV-1;NA means No significant activity at 10 uM.; assay type: functional, organism-based

T1 sequence (P51681 whole entry): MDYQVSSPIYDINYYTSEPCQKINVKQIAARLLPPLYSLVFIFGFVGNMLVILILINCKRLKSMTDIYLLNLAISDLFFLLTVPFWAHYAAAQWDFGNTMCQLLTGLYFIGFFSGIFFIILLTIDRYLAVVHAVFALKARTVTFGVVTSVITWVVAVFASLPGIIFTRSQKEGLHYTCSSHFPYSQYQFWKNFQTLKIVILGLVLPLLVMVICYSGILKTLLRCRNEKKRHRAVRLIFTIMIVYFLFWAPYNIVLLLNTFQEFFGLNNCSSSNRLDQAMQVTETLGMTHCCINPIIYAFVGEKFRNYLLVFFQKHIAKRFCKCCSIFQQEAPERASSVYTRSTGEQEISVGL

Compound	IC50 [1] [nM]	IC50 [3] [nM]	further results
CN(CC(CCN1CCC(O)(CCCc2ccccc2)CC1)c1ccccc1)S(=O)(=O)c1cccs1 (stereo unspecified)	6.5	–	–
CN(CC1CCCCC1)CC(CCN1CCC(O)(CCCc2ccccc2)CC1)c1ccccc1 (stereo unspecified)	–	–	IC50 [2]: Not Active
O=S(=O)(c1ccc(-c2ccccn2)s1)N1C[C@H](CN2CCC(CCCc3ccccc3)CC2)[C@@H](c2ccccc2)C1	–	60	–
O=S(=O)(c1cccs1)N1CC(CN2CCC(O)(CCCc3ccccc3)CC2)[C@@H](c2ccccc2)C1 (stereo partly specified)	–	20	–
O=S(=O)(c1ccc(-c2ccccn2)s1)N1C[C@H](CN2CCC(O)(CCCc3ccccc3)CC2)[C@@H](c2ccccc2)C1	–	41	–
CN(CC(CCN1CCC(CCCc2ccccc2)CC1)c1ccccc1)S(=O)(=O)c1ccc(-c2ccccn2)s1 (stereo unspecified)	2	–	IC95 [4]: 3100 nM
CN(CC1CCCCC1)CC(CCN1CCC(CCCc2ccccc2)CC1)c1ccccc1 (stereo unspecified)	–	–	IC50 [2]: Not Active
c1ccc(CCCC2CCN(C[C@H]3CN(CC4CCCCC4)C[C@@H]3c3ccccc3)CC2)cc1	–	6.5	–
CN(CC(CCN1CCC(CCCc2ccccc2)CC1)c1ccccc1)S(=O)(=O)c1cccs1 (stereo unspecified)	3	–	IC95 [5]: inactive
OC1(CCCc2ccccc2)CCN(C[C@H]2CN(CC3CCCCC3)C[C@@H]2c2ccccc2)CC1	–	1	IC95 [4]: 580 nM
CN(CC(CCN1CCC(O)(CCCc2ccccc2)CC1)c1ccccc1)S(=O)(=O)c1ccc(-c2ccccn2)s1 (stereo unspecified)	4	–	IC95 [4]: 6200 nM
O=S(=O)(c1cccs1)N1C[C@H](CN2CCC(CCCc3ccccc3)CC2)[C@@H](c2ccccc2)C1	–	25	–
